Source: ChEMBL document CHEMBL3259791, “Discovery of (E)-3-((styrylsulfonyl)methyl)pyridine and (E)-2-((styrylsulfonyl)methyl)pyridine derivatives as anticancer agents: synthesis, structure-activity relationships, and biological activities” (J Med Chem, 2014)

Experiments:
Type in all cases: functional
A2780 [1] = assay: Antiproliferative activity against human A2780 cells assessed as cell growth inhibition after 72 hrs by MTT assay; conditions: A2780, 72 h
MCF7 = assay: Antiproliferative activity against ER positive human MCF7 cells assessed as cell growth inhibition after 72 hrs by MTT assay; conditions: MCF7, 72 h
MDA-MB-231 = assay: Antiproliferative activity against ER negative human MDA-MB-231 cells assessed as cell growth inhibition after 72 hrs by MTT assay; conditions: MDA-MB-231, 72 h
LNCaP = assay: Antiproliferative activity against AR positive human LNCAP cells assessed as cell growth inhibition after 72 hrs by MTT assay
A2780 [2] = assay: Cell cycle arrest in human A2780 cells assessed as accumulation at G1 phase at 0.06 uM after 24 hrs by flow cytometric analysis (reference value: 54.89%)
A2780 [3] = assay: Cell cycle arrest in human A2780 cells assessed as accumulation at G2/M phase at 0.06 uM after 24 hrs by flow cytometric analysis (reference value: 21.81%)
A2780 [4] = assay: Cell cycle arrest in human A2780 cells assessed as accumulation at subG1 phase at […] after 24 hrs by flow cytometric analysis (reference value: 0.62%)
A2780 [5] = assay: Cell cycle arrest in human A2780 cells assessed as accumulation at S phase at […] after 24 hrs by flow cytometric analysis (reference value: 22.72%)
A2780 [6] = assay: Cell cycle arrest in human A2780 cells assessed as accumulation at subG1 phase at 1 uM after 24 hrs by flow cytometric analysis (reference value: 0.62%)
A2780 [7] = assay: Cell cycle arrest in human A2780 cells assessed as accumulation at G1 phase at 1 uM after 24 hrs by flow cytometric analysis (reference value: 54.89%)
A2780 [8] = assay: Cell cycle arrest in human A2780 cells assessed as accumulation at S phase at 1 uM after 24 hrs by flow cytometric analysis (reference value: 22.72%)
A2780 [9] = assay: Cell cycle arrest in human A2780 cells assessed as accumulation at G2/M phase at 1 uM after 24 hrs by flow cytometric analysis (reference value: 21.81%)
WI-38 [10] = assay: Cell cycle arrest in human WI38 cells assessed as accumulation at subG1 phase at 0.06 uM after 24 hrs by flow cytometric analysis (reference value: 10.53%)
WI-38 [11] = assay: Cell cycle arrest in human WI38 cells assessed as accumulation at G1 phase at 0.06 uM after 24 hrs by flow cytometric analysis (reference value: 55.89%)
WI-38 [12] = assay: Cell cycle arrest in human WI38 cells assessed as accumulation at G1 phase at […] after 24 hrs by flow cytometric analysis (reference value: 55.89%)
WI-38 [13] = assay: Cell cycle arrest in human WI38 cells assessed as accumulation at S phase at […] after 24 hrs by flow cytometric analysis (reference value: 16.25%)
WI-38 [14] = assay: Cell cycle arrest in human WI38 cells assessed as accumulation at G2/M phase at […] after 24 hrs by flow cytometric analysis (reference value: 17.36%)
WI-38 [15] = assay: Cell cycle arrest in human WI38 cells assessed as accumulation at subG1 phase at 1 uM after 24 hrs by flow cytometric analysis (reference value: 10.53%)
WI-38 [16] = assay: Cell cycle arrest in human WI38 cells assessed as accumulation at G1 phase at 1 uM after 24 hrs by flow cytometric analysis (reference value: 55.89%)
WI-38 [17] = assay: Cell cycle arrest in human WI38 cells assessed as accumulation at S phase at 1 uM after 24 hrs by flow cytometric analysis (reference value: 16.25%)
WI-38 [18] = assay: Cell cycle arrest in human WI38 cells assessed as accumulation at G2/M phase at 1 uM after 24 hrs by flow cytometric analysis (reference value: 17.36%)
A2780 [19] = assay: Induction of apoptosis in human A2780 cells assessed as necrotic cells at 0.06 uM after 48 hrs by annexin V/PI double staining (reference value: 0.53%)
A2780 [20] = assay: Induction of apoptosis in human A2780 cells assessed as late-stage apoptotic cells at 0.06 uM after 48 hrs by annexin V/PI double staining (reference value: 10.20%)
A2780 [21] = assay: Induction of apoptosis in human A2780 cells assessed as early-stage apoptotic cells at 0.06 uM after 48 hrs by annexin V/PI double staining (reference value: 7.13%)
A2780 [22] = assay: Induction of apoptosis in human A2780 cells assessed as late-stage apoptotic cells at […] after 48 hrs by annexin V/PI double staining (reference value: 10.20%)
A2780 [23] = assay: Induction of apoptosis in human A2780 cells assessed as early-stage apoptotic cells at […] after 48 hrs by annexin V/PI double staining (reference value: 7.13%)
A2780 [24] = assay: Induction of apoptosis in human A2780 cells assessed as late-stage apoptotic cells at 1 uM after 48 hrs by annexin V/PI double staining (reference value: 10.20%)
A2780 [25] = assay: Induction of apoptosis in human A2780 cells assessed as early-stage apoptotic cells at 1 uM after 48 hrs by annexin V/PI double staining (reference value: 7.13%)
A2780 [26] = assay: Induction of apoptosis in human A2780 cells assessed as viable cells at 1 uM after 48 hrs by annexin V/PI double staining (reference value: 82.12%); conditions: A2780, 48 h, read-out: Activity
WI-38 [27] = assay: Induction of apoptosis in human WI38 cells assessed as early-stage apoptotic cells at 0.06 uM after 48 hrs by annexin V/PI double staining (reference value: 2.16%)
WI-38 [28] = assay: Induction of apoptosis in human WI38 cells assessed as viable cells at 0.06 uM after 48 hrs by annexin V/PI double staining (reference value: 80.59%); conditions: WI-38, 48 h, read-out: Activity
WI-38 [29] = assay: Induction of apoptosis in human WI38 cells assessed as necrotic cells at […] after 48 hrs by annexin V/PI double staining (reference value: 0.99%)
WI-38 [30] = assay: Induction of apoptosis in human WI38 cells assessed as late-stage apoptotic cells at […] after 48 hrs by annexin V/PI double staining (reference value: 16.26%)
WI-38 [31] = assay: Induction of apoptosis in human WI38 cells assessed as early-stage apoptotic cells at […] after 48 hrs by annexin V/PI double staining (reference value: 2.16%)
WI-38 [32] = assay: Induction of apoptosis in human WI38 cells assessed as viable cells at […] after 48 hrs by annexin V/PI double staining (reference value: 80.59%); conditions: WI-38, 48 h, read-out: Activity
WI-38 [33] = assay: Induction of apoptosis in human WI38 cells assessed as necrotic cells at 1 uM after 48 hrs by annexin V/PI double staining (reference value: 0.99%)
WI-38 [34] = assay: Induction of apoptosis in human WI38 cells assessed as early-stage apoptotic cells at 1 uM after 48 hrs by annexin V/PI double staining (reference value: 2.16%)
WI-38 [35] = assay: Induction of apoptosis in human WI38 cells assessed as viable cells at 1 uM after 48 hrs by annexin V/PI double staining (reference value: 80.59%); conditions: WI-38, 48 h, read-out: Activity

SMILES | GI50 (A2780 [1]) [nM] | GI50 (MCF7) [nM] | GI50 (MDA-MB-231) [nM] | GI50 (LNCaP) [nM] | Activity (A2780 [2]) [%] | Activity (A2780 [3]) [%] | Activity (A2780 [4]) [%] | Activity (A2780 [5]) [%] | Activity (A2780 [6]) [%] | Activity (A2780 [7]) [%] | Activity (A2780 [8]) [%] | Activity (A2780 [9]) [%] | Activity (WI-38 [10]) [%] | Activity (WI-38 [11]) [%] | Activity (WI-38 [12]) [%] | Activity (WI-38 [13]) [%] | Activity (WI-38 [14]) [%] | Activity (WI-38 [15]) [%] | Activity (WI-38 [16]) [%] | Activity (WI-38 [17]) [%] | also measured
COc1cc(OC)c(/C=C/S(=O)(=O)Cc2ccc(OC)c(N)n2)c(OC)c1 | 7 | 6 | 7 | 3 | 12.87 | 59.72 | 12.42 | 22.54 | 2.71 | 13.02 | 24.49 | 59.78 | 13.31 | 54.04 | 53.55 | 9.5 | 24.87 | 8.09 | 60.09 | 6.87 | Activity (WI-38 [18]): 24.94%; Activity (A2780 [19]): 2.88%; Activity (A2780 [20]): 25.69%; Activity (A2780 [21]): 38%; Activity (A2780 [22]): 25.61%; Activity (A2780 [23]): 46.99%; Activity (A2780 [24]): 21.09%; Activity (A2780 [25]): 55.45%; viability at 1 µM (A2780 [26]): 22.2%; Activity (WI-38 [27]): 1.37%; viability at 0.06 µM (WI-38 [28]): 82.2%; Activity (WI-38 [29]): 5.41%; Activity (WI-38 [30]): 8.7%; Activity (WI-38 [31]): 1.49%; viability at […] (WI-38 [32]): 84.4%; Activity (WI-38 [33]): 1.83%; Activity (WI-38 [34]): 2.86%; viability at 1 µM (WI-38 [35]): 79.8%
COc1cc(OC)c(/C=C/S(=O)(=O)Cc2ccc(OC)c(NCC(=O)O)c2)c(OC)c1 [RIGOSERTIB] | 62 | 50 | 57 | 25 | 53.41 | 19.63 | 5.98 | 24.81 | 0.32 | 5.37 | 33.83 | 60.57 | 5.71 | 64.47 | 54.39 | 9.32 | 26.83 | 6.57 | 53.8 | 10.36 | Activity (WI-38 [18]): 19.27%; Activity (A2780 [19]): 0.34%; Activity (A2780 [20]): 6.27%; Activity (A2780 [21]): 3.82%; Activity (A2780 [22]): 14.92%; Activity (A2780 [23]): 38.11%; Activity (A2780 [24]): 21.83%; Activity (A2780 [25]): 50.22%; viability at 1 µM (A2780 [26]): 26.6%; Activity (WI-38 [27]): 1.68%; viability at 0.06 µM (WI-38 [28]): 85.5%; Activity (WI-38 [29]): 1.89%; Activity (WI-38 [30]): 19.49%; Activity (WI-38 [31]): 5.36%; viability at […] (WI-38 [32]): 73.2%; Activity (WI-38 [33]): 2.99%; Activity (WI-38 [34]): 8.88%; viability at 1 µM (WI-38 [35]): 65.7%
COc1cc(OC)c(/C=C/S(=O)(=O)Cc2ccc(OC)c(NS(C)(=O)=O)n2)c(OC)c1 | 406 | 468 | 641 | 450 | 57.73 | 21.08 | 0.77 | 22.53 | 7.27 | 14.2 | 19.16 | 59.38 | 10.05 | 51.48 | 61.63 | 13.26 | 14.08 | 5.66 | 58.17 | 9.93 | Activity (WI-38 [18]): 26.14%; Activity (A2780 [19]): 0.55%; Activity (A2780 [20]): 7.36%; Activity (A2780 [21]): 4.67%; Activity (A2780 [22]): 5.88%; Activity (A2780 [23]): 5.55%; Activity (A2780 [24]): 24.63%; Activity (A2780 [25]): 38.36%; viability at 1 µM (A2780 [26]): 35.6%; Activity (WI-38 [27]): 2.49%; viability at 0.06 µM (WI-38 [28]): 78.1%; Activity (WI-38 [29]): 1.11%; Activity (WI-38 [30]): 11.58%; Activity (WI-38 [31]): 2.86%; viability at […] (WI-38 [32]): 84.4%; Activity (WI-38 [33]): 1.73%; Activity (WI-38 [34]): 10.08%; viability at 1 µM (WI-38 [35]): 67%
